Assay results published in patent publication US20240254103A9, “NOVEL PYRIMIDINE DERIVATIVE, AND COMPOSITION FOR PREVENTING OR TREATING NEURODEGENERATIVE DISEASES AND CANCER, COMPRISING SAME” (WHAN IN PHARMACEUTICAL CO., LTD., priority 2020, published 2024).

Columns and labels:
[1] = target: T1, mutant LRRK2 (G2019S) (Homo sapiens, UniProt Q5S007, G2019S); test: Inhibitory activity against LRRK2: competition binding to ligand-affinity beads, DNA-tagged kinase quantitated by qPCR; conditions: 100 nM compound; % of ctrl; read-out: Remaining kinase activity(%) at 100 nM LRRK2(G2019Smutant)
T1 construct: DNA tag for qPCR detection (not a peptide; the protein part that carries it is not described); made in house; host or cells: HEK 293 cells (the same paragraph also describes T7 phage grown in E. coli BL21)
How it was run: (§1)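 Human LRRK2 H970–E2527, wild type or G2019S, was expressed as DNA-tagged kinase (T7 phage in E. coli or HEK293) and competed for 1 h against a biotinylated ligand on streptavidin beads. Bound kinase was eluted with 0.5 µM free ligand and quantified by qPCR. Values are % of control at 100 nM (both forms) and at 10 and 50 nM (wild type).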

[2] = target: T2, wild-type LRRK2 (Homo sapiens, UniProt Q5S007); test: as above; conditions: 100 nM compound; % of ctrl; read-out: Remaining kinase activity(%) at 100 nM LRRK2(WT)
T2 construct: DNA tag for qPCR detection (not a peptide; the protein part that carries it is not described); made in house; host or cells: HEK 293 cells (the same paragraph also describes T7 phage grown in E. coli BL21)
How it was run: as §1

T2 sequence (Q5S007 970-2527): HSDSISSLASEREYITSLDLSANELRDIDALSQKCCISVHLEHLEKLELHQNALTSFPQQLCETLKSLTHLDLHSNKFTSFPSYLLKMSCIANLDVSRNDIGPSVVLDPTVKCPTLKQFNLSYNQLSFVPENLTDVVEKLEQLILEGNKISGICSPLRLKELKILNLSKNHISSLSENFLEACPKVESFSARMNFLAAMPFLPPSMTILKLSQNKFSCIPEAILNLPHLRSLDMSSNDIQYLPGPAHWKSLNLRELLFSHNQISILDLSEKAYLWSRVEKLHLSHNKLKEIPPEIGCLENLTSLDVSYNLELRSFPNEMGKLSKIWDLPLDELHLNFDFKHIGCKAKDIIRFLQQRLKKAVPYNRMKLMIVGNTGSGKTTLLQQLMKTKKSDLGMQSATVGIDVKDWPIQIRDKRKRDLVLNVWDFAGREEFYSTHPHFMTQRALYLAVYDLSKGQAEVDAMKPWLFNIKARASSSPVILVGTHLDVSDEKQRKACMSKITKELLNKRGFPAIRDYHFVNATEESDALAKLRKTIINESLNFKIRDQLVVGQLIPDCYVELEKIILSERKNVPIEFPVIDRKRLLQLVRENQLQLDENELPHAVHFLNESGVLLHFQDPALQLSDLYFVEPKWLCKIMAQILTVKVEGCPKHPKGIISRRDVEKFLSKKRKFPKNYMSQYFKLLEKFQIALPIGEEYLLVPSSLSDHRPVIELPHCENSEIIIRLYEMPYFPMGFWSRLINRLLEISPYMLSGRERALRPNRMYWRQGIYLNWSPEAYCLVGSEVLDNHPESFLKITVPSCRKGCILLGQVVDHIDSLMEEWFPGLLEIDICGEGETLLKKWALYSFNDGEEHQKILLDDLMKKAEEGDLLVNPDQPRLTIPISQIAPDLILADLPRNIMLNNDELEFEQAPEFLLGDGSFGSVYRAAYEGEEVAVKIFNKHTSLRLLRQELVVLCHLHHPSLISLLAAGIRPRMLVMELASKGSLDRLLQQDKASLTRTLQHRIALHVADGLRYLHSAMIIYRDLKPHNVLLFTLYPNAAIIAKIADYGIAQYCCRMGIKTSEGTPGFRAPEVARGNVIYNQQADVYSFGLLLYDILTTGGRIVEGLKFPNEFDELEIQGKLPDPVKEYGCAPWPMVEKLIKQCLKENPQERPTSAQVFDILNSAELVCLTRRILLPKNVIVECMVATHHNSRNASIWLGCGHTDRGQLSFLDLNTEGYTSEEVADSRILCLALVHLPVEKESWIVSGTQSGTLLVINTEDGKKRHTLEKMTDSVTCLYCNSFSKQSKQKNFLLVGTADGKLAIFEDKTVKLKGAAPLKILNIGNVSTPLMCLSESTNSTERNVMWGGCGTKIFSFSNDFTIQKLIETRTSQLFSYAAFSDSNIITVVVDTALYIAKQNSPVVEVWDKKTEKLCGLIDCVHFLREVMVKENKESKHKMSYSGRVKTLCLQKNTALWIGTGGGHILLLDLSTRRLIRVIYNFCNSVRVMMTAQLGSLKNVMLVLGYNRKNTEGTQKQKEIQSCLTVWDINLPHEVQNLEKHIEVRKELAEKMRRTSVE
T1 sequence (Q5S007 970-2527 G2019S): as the sequence (Q5S007 970-2527) above, with G1050S counted along it

| remaining binding at 0.1 µM [1] [%] | remaining binding at 0.1 µM [2] [%] | Compound |
| --- | --- | --- |
| < 10 | < 10 | COc1cc(C(=O)N2CCOCC2)ccc1Nc1ncc(Cl)c(-c2cnn(C3CCOCC3)c2)n1 [Compound 20, (4-((5-chloro-4-(1-(tetrahydro-2H-pyran-4-yl)-1H-pyrazol-4-yl)pyrimidin-2-yl)amino)-3-methoxyphenyl)(morpholino)methanone] |
| < 30 | < 30 | COCCN(C)C(=O)c1ccc(Nc2ncc(Cl)c(-c3cnn(C)c3)n2)c(OC)c1 [Compound 21, 4-((5-chloro-4-(1-methyl-1H-pyrazol-4-yl)pyrimidin-2-yl)amino)-3-methoxy-N-(2-methoxyethyl)-N-methylbenzamide] |
| < 50 | < 30 | COc1cc(C(=O)N2CCCC2)ccc1Nc1ncc(Cl)c(-c2cnn(C)c2)n1 [Compound 22, (4-((5-chloro-4-(1-methyl-1H-pyrazol-4-yl)pyrimidin-2-yl)amino)-3-methoxyphenyl)(pyrrolidin-1-yl)methanone] |
| < 50 | < 50 | CCN(CCOC)C(=O)c1ccc(Nc2ncc(Cl)c(-c3cnn(C)c3)n2)c(OC)c1 [Compound 23, 4-((5-chloro-4-(1-methyl-1H-pyrazol-4-yl)pyrimidin-2-yl)amino)-N-ethyl-3-methoxy-N-(2-methoxyethyl)benzamide] |
| < 50 | < 30 | COc1cc(C(=O)NC(C)(C)CO)ccc1Nc1ncc(Cl)c(-c2cnn(C)c2)n1 [Compound 24, 4-((5-chloro-4-(1-methyl-1H-pyrazol-4-yl)pyrimidin-2-yl)amino)-N-(1-hydroxy-2-methylpropan-2-yl)-3-methoxybenzamide] |
| < 50 | < 30 | COc1cc(C(=O)NC(C)(C)C)ccc1Nc1ncc(Cl)c(-c2cnn(C)c2)n1 [Compound 25, N-(tert-butyl)-4-((5-chloro-4-(1-methyl-1H-pyrazol-4-yl)pyrimidin-2-yl)amino)-3-methoxybenzamide] |
| < 50 | < 50 | COc1cc(C(=O)NCC(C)(C)O)ccc1Nc1ncc(Cl)c(-c2cnn(C)c2)n1 [Compound 26, 4-((5-chloro-4-(1-methyl-1H-pyrazol-4-yl)pyrimidin-2-yl)amino)-N-(2-hydroxy-2-methylpropyl)-3-methoxybenzamide] |
| < 10 | < 10 | COc1cc(C(=O)N2CCOCC2)ccc1Nc1ncc(Cl)c(-c2cnn(C(C)(C)CC#N)c2)n1 [Compound 27, 3-(4-(5-chloro-2-((2-methoxy-4-(morpholine-4-carbonyl)phenyl)amino)pyrimidin-4-yl)-1H-pyrazol-1-yl)-3-methylbutanenitrile] |
| < 30 | < 30 | COCCn1cc(-c2nc(Nc3ccc(C(=O)N4CCOCC4)cc3OC)ncc2Cl)cn1 [Compound 28, (4-((5-chloro-4-(1-(2-methoxyethyl)-1H-pyrazol-4-yl)pyrimidin-2-yl)amino)-3-methoxyphenyl)(morpholino)methanone] |
| < 30 | < 50 | COc1cc(C(=O)N2CCOCC2)ccc1Nc1ncc(C(F)(F)F)c(-c2cnn(C3CCOCC3)c2)n1 [Compound 29, (3-methoxy-4-((4-(1-(tetrahydro-2H-pyran-4-yl)-1H-pyrazol-4-yl)-5-(trifluoromethyl)pyrimidin-2-yl)amino)phenyl)(morpholino)methanone] |
| < 30 | < 10 | COc1cc(C(=O)N2CCC(N3CCN(C)CC3)CC2)ccc1Nc1ncc(C(F)(F)F)c(-c2cnn(C)c2)n1 [Compound 31, (3-methoxy-4-((4-(1-methyl-1H-pyrazol-4-yl)-5-(trifluoromethyl)pyrimidin-2-yl)amino)phenyl)(4-(4-methylpiperazin-1-yl)piperidin-1-yl)methanone] |
| < 30 | < 50 | COc1cc(C(=O)N2CCC3(CC2)COC3)ccc1Nc1ncc(Cl)c(-c2cnn(C)c2)n1 [Compound 32, (4-((5-chloro-4-(1-methyl-1H-pyrazol-4-yl)pyrimidin-2-yl)amino)-3-methoxyphenyl)(2-oxa-7-azaspiro[3.5]nonan-7-yl)methanone] |
| < 50 | < 30 | COc1cc(C(=O)N2CC3(CCO3)C2)ccc1Nc1ncc(Cl)c(-c2cnn(C)c2)n1 [Compound 33, (4-((5-chloro-4-(1-methyl-1H-pyrazol-4-yl)pyrimidin-2-yl)amino)-3-methoxyphenyl)(1-oxa-6-azaspiro[3.3]heptan-6-yl)methanone] |
| < 30 | < 10 | COc1cc(C(=O)N2CCN(C(C)C)CC2)ccc1Nc1ncc(Cl)c(-c2cnn(C)c2)n1 [Compound 34, (4-((5-chloro-4-(1-methyl-1H-pyrazol-4-yl)pyrimidin-2-yl)amino)-3-methoxyphenyl)(4-isopropylpiperazin-1-yl)methanone] |
| < 10 | < 30 | COc1cc(C(=O)N2CCC3(CC2)COC3)ccc1Nc1ncc(Cl)c(-c2cnn(C3CCOCC3)c2)n1 [Compound 35, (4-((5-chloro-4-(1-(tetrahydro-2H-pyran-4-yl)-1H-pyrazol-4-yl)pyrimidin-2-yl)amino)-3-methoxyphenyl)(2-oxa-7-azaspiro[3.5]nonan-7-yl)methanone] |
| < 10 | < 10 | COc1cc(C(=O)NC2CCN(C)CC2)ccc1Nc1ncc(Cl)c(-c2cnn(C)c2)n1 [Compound 38, 4-((5-chloro-4-(1-methyl-1H-pyrazol-4-yl)pyrimidin-2-yl)amino)-3-methoxy-N-(1-methylpiperidin-4-yl)benzamide] |
| < 50 | < 30 | COc1cc(C(=O)N2CCC(F)(F)CC2)ccc1Nc1ncc(Cl)c(-c2cnn(C)c2)n1 [Compound 41, (4-((5-chloro-4-(1-methyl-1H-pyrazol-4-yl)pyrimidin-2-yl)amino)-3-methoxyphenyl)(4,4-difluoropiperidin-1-yl)methanone] |
| < 50 | < 30 | COc1cc(C(=O)N2CCOC(C)(C)C2)ccc1Nc1ncc(Cl)c(-c2cnn(C)c2)n1 [Compound 42, (4-((5-chloro-4-(1-methyl-1H-pyrazol-4-yl)pyrimidin-2-yl)amino)-3-methoxyphenyl)(2,2-dimethylmorpholino)methanone] |
| < 30 | < 10 | COc1cc(C(=O)N2CC(N3CCOCC3)C2)ccc1Nc1ncc(Cl)c(-c2cnn(C)c2)n1 [Compound 43, (4-((5-chloro-4-(1-methyl-1H-pyrazol-4-yl)pyrimidin-2-yl)amino)-3-methoxyphenyl)(3-morpholinoazetidin-1-yl)methanone] |
| < 30 | < 10 | COc1cc(C(=O)N2CCN(C(C)=O)CC2)ccc1Nc1ncc(Cl)c(-c2cnn(C)c2)n1 [Compound 44, 1-(4-(4-((5-chloro-4-(1-methyl-1H-pyrazol-4-yl)pyrimidin-2-yl)amino)-3-methoxybenzoyl)piperazin-1-yl)ethan-1-one] |
| < 30 | < 30 | COc1cc(C(=O)N2CCN(C(C)C)CC2)ccc1Nc1ncc(C(F)(F)F)c(-c2cnn(C)c2)n1 [Compound 45, (4-isopropylpiperazin-1-yl)(3-methoxy-4-((4-(1-methyl-1H-pyrazol-4-yl)-5-(trifluoromethyl)pyrimidin-2-yl)amino)phenyl)methanone] |
| < 10 | < 10 | COc1cc(C(=O)N2CCOCC2)c(F)cc1Nc1ncc(C(F)(F)F)c(-c2cnn(C)c2)n1 [Compound 46, (2-fluoro-5-methoxy-4-((4-(1-methyl-1H-pyrazol-4-yl)-5-(trifluoromethyl)pyrimidin-2-yl)amino)phenyl)(morpholino)methanone] |
| < 10 | < 10 | COc1cc(C(=O)N2CCOCC2)c(F)cc1Nc1ncc(Cl)c(-c2cnn(C(C)C)c2)n1 [Compound 49, (4-((5-chloro-4-(1-isopropyl-1H-pyrazol-4-yl)pyrimidin-2-yl)amino)-2-fluoro-5-methoxyphenyl)(morpholino)methanone] |
| < 10 | < 10 | COc1cc(C(=O)N2CCN(C3COC3)CC2)ccc1Nc1ncc(Cl)c(-c2cnn(C)c2)n1 [Compound 50, (4-((5-chloro-4-(1-methyl-1H-pyrazol-4-yl)pyrimidin-2-yl)amino)-3-methoxyphenyl)(4-(oxetan-3-yl)piperazin-1-yl)methanone] |
| < 30 | < 30 | COc1cc(C(=O)N2C[C@H]3CC[C@@H](C2)O3)ccc1Nc1ncc(Cl)c(-c2cnn(C)c2)n1 [Compound 51, ((1R,5S)-8-oxa-3-azabicyclo[3.2.1]octan-3-yl)(4-((5-chloro-4-(1-methyl-1H-pyrazol-4-yl)pyrimidin-2-yl)amino)-3-methoxyphenyl)methanone] |
| < 30 | < 50 | COc1cc(C(=O)c2ccncc2)ccc1Nc1ncc(Cl)c(-c2cnn(C(C)C)c2)n1 [Compound 54, (4-((5-chloro-4-(1-isopropyl-1H-pyrazol-4-yl)pyrimidin-2-yl)amino)-3-methoxyphenyl)(pyridin-4-yl)methanone] |
| < 10 | < 10 | CCn1cc(-c2nc(Nc3ccc(C(=O)N4CCOCC4)cc3OC)ncc2Cl)cn1 [Compound 56, (4-((5-chloro-4-(1-ethyl-1H-pyrazol-4-yl)pyrimidin-2-yl)amino)-3-methoxyphenyl)(morpholino)methanone] |
